Data set [1] relates to conscious mice. The data set can be described thus: intravenous toxicity in conscious mice. The data set is classed as in vivo. The note with it: four conscious mice, one hundred times the dose giving approximate 50% inhibition of gastric secretion in the anaesthetised rat. The protocol: (§1) No overt toxicity or side effects were noted during the rat or dog tests. The compound 1-[3-(4-[2-(2,2,2-trifluoroethyl)guanidino]pyrimid-2-yloxy)propyl]imidazole was administered intravenously to groups of two anaesthetised rats and four conscious mice at doses which were respectively ten times and one hundred times the dose, in mg./kg., which produced an approximate 50% inhibition of gastric secretion in the anaesthetised rat.

For data set [2], the system named is anaesthetised rats. The data set is described as follows: intravenous toxicity in anaesthetised rats. Format: in vivo. To be noted: two anaesthetised rats, ten times the dose giving approximate 50% inhibition of gastric secretion in the anaesthetised rat. The protocol:
as §1

Consider `NC(=NCC(F)(F)F)Nc1ccnc(OCCCn2ccnc2)n1` [Example 6, 1-[3-(4-[2-(2,2,2-trifluoroethyl)guanidino]pyrimid-2-yloxy)propyl]imidazole], for which the toxic symptoms result in data set [1] and in data set [2] was “No toxic symptoms” in each case.

For the origin of these results see patent US4570000A, “Nitrogen heterocycles” (Imperial Chemical Industries, PLC, priority 1981, dated 1986).
